Here are results for three molecules from patent publication EP0325016A1, “Antiperspirants with alpha-2-adrenergic amine activity” (Bristol-Myers Company, priority 1988, dated 1989).

The assay relates to rat foot pad. Put plainly: Inhibition of sweat in the rat foot pad (iodine/starch count of activated sweat glands, test foot vs control foot). The format is in vivo, Sprague Dawley rats. The following applies: for Approx. % Inhibition: topical on hind foot pads, photo 40 minutes post treatment. The procedure:
To test the effectiveness of the adrenergic amines encompassed in this invention in inhibiting perspiration the following tests were carried out.
A series of test solutions were prepared by dissolving various quantities of xylometazoline HCl, oxymetazoline HCl and naphazoline HCl in freshly prepared distilled water. In the case of xylometazoline HCl 0.003%, 0.03%, 0.15% and 0.3% solutions were prepared. In the cases for oxymetazoline HCl and naphazoline HCl 0.15% solutions were made. The control material is distilled water.
• A. Prior to testing, rats are routinely acclimated to the laboratory environment for seven days and gross observations are made to ensure good health of animals to be tested. • B. Sprague Dawley rats, male and/or female (175-250 gm) are selected for test and identified by cage label and ear tag number. • C. A minimum of 6 animals is used in testing each solution.
• A. Test room should be maintained at a temperature of 78/± 2/F. • B. • 1. Test animals are injected intramuscularly with Innovar Vet\)\ (.01 ml/100 gm body wt.) by use of a 0.25 ml tuberculin syringe with a 26-27 gauge needle. Animals are then returned to their cages. • 2. […] Both hind feet are then swabbed with 70% ethyl alcohol (ETOH) to remove any debris. • 4. The four interdigital palmar foot pads on one hind foot are then treated with test material while the opposite hind foot is treated with the control material. • 5. After treatment of all animals, an iodine solution (2% in 95% ETOH wt./vol.) is applied to both hind feet. • 6. 30 minutes post treatment the hind feet are then painted with a suspension of starch and castor oil (50/50, wt./vol.). • 7. 40 minutes post treatment Polaroid photos (3X, using Polaroid Type Film 669) are taken of both hind feet in the same frame.
• 1. The number of activated sweat glands in each of the four palmar foot pads is quantitated by manually counting the black dots observed in the photo of the control and test treated feet. • 2. The ratio of the total number of secreting sweat glands on the control foot vs the total number of secreting glands on the test foot is used to estimate the percent inhibition of sweat in the rat foot pad. • 3. The following formula is used to calculate activity: Percent inhibition of sweat in the rat foot pad = [formula]

The mark [1] stands for this setting: Concentration tested 0.15% in distilled water.

Structures can show the parent of a compound that is named as a salt.

`Cc1cc(C(C)(C)C)c(O)c(C)c1CC1=NCCN1` [Oxymetazoline HCl, oxymetazoline HCl]: under setting [1], the “Approx. % Inhibition” value was ~92%.
As to `Cc1cc(C(C)(C)C)cc(C)c1CC1=NCCN1` [Xylometazoline HCl, xylometazoline HCl], the “Approx. % Inhibition” value reads like this: (Concentration tested 0.003% in distilled water) ~30%; (Concentration tested 0.03% in distilled water) ~50%; under setting [1], ~80%; (Concentration tested 0.3% in distilled water) ~88%. For the same molecule, the “perspiration inhibition (result in words)” value (summary of Table I, concentrations 0.003-0.3%) is given as “a dose response has been demonstrated”.
`c1ccc2c(CC3=NCCN3)cccc2c1` [Naphazoline HCl, naphazoline HCl]: under setting [1], the “Approx. % Inhibition” value is listed as ~95%.
